Common to all, as to type: biochemical
The target of test [1] is JAK3 (Homo sapiens (Human), UniProt P52333). In words: JAK3 Inhibition Assay (Example D, Omnia kinase fluorescence peptide substrate assay). A digest of the protocol:
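Omnia Sox-peptide kinetic read (ex 360 nm, em 485 nm, every 50 s over 45 min) tracked phosphorylation of 10 μM Y7 peptide by 2 nM recombinant JAK3 at 1 mM ATP. Buffer: 25 mM HEPES pH 7.4, 10 mM MgCl2, 0.01% Triton X-100, 1 mM DTT, with 2% DMSO final.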

Test [2] concerns the target JAK2 (Homo sapiens (Human), UniProt O60674). The test is described as follows: JAK2 Inhibition Assay (Example C, Omnia kinase fluorescence peptide substrate assay). The settings on record: JAK2 Enzyme IC50 1 mM ATP, averaged IC50 ranges. The method in brief:
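Kinetic fluorescence read of Omnia Y7 peptide (10 μM) phosphorylation, ex 360/em 485 nm every 50 s over 45 min, by 4 nM JAK2 at 1 mM ATP. Buffer 25 mM HEPES pH 7.4, 10 mM MgCl2, 0.01% Triton X-100, 1 mM DTT; final DMSO 2%. Percent-of-control values fitted by 4-parameter logistic for IC50.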

Test [3] has as its target Human Tyk2 kinase domain (Homo sapiens (Human), UniProt P29597). The test is described as follows: Tyk2 Inhibition Assay (Example A, Omnia kinase fluorescence peptide substrate assay). The settings on record: TYK2 Enzyme IC50 1 mM ATP, averaged IC50 ranges. The method in brief: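 IC50 values come from a 4-parameter logistic fit of percent-of-control data, with compounds at 2% final DMSO. Reactions held 1 nM His-tag-cleaved Tyk2 (aa 886–1187), 8 μM Omnia Y12 peptide and 1 mM ATP in pH 7.4 HEPES buffer with 10 mM MgCl2, Triton X-100 and DTT. Sox fluorescence (360/485 nm) was monitored kinetically over 45 min.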

Test [4] concerns the target JAK1 (Homo sapiens (Human), UniProt P23458). The test is described as follows: JAK1 Inhibition Assay (Example B, Omnia kinase fluorescence peptide substrate assay). A digest of the protocol:
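Kinetic fluorescence read (360 nm excitation, 485 nm emission, every 50 s over 45 min) of Omnia Y12 peptide (8 μM) phosphorylation by 12.5 nM human JAK1 at 1 mM ATP. Buffer: HEPES pH 7.4, MgCl2, Triton X-100, DTT; 2% DMSO. IC50 = concentration giving 50 POC on logistic curve.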

Where [5] appears, read: JAK1 Enzyme IC50 1 mM ATP, 1 mM ATP, averaged IC50 ranges.

Like-named read-outs stand apart in the source and are kept apart here.

Chain of JAK3 (P52333 whole entry): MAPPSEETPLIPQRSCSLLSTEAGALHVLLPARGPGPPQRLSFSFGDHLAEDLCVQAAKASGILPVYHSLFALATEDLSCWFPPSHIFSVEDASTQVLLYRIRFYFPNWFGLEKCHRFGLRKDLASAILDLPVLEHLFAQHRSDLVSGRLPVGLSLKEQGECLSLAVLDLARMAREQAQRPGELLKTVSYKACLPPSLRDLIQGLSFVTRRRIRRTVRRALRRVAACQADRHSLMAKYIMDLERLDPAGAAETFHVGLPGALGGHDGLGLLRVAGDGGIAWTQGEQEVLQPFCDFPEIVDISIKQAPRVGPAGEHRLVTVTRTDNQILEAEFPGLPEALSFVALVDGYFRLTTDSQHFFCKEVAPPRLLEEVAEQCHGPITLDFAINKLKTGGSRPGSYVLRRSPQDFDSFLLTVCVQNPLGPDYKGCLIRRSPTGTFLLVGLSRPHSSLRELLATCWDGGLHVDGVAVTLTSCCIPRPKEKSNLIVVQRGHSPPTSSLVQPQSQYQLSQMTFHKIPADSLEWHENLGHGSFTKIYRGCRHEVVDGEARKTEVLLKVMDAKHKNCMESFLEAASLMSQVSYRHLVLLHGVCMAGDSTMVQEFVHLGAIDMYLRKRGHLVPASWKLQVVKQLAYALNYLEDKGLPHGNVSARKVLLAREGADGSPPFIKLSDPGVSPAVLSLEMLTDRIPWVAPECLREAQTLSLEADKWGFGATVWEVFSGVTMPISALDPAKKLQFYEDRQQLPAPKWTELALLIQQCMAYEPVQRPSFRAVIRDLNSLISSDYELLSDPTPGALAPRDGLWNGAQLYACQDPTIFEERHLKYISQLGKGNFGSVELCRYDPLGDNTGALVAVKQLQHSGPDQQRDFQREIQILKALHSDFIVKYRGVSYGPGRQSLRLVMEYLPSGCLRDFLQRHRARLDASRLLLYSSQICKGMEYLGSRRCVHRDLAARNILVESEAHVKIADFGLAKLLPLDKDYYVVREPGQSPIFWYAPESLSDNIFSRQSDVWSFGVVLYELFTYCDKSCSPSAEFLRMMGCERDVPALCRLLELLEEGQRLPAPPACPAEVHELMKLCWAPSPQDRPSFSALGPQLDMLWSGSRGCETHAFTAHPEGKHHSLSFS
Chain of JAK1 (P23458 whole entry): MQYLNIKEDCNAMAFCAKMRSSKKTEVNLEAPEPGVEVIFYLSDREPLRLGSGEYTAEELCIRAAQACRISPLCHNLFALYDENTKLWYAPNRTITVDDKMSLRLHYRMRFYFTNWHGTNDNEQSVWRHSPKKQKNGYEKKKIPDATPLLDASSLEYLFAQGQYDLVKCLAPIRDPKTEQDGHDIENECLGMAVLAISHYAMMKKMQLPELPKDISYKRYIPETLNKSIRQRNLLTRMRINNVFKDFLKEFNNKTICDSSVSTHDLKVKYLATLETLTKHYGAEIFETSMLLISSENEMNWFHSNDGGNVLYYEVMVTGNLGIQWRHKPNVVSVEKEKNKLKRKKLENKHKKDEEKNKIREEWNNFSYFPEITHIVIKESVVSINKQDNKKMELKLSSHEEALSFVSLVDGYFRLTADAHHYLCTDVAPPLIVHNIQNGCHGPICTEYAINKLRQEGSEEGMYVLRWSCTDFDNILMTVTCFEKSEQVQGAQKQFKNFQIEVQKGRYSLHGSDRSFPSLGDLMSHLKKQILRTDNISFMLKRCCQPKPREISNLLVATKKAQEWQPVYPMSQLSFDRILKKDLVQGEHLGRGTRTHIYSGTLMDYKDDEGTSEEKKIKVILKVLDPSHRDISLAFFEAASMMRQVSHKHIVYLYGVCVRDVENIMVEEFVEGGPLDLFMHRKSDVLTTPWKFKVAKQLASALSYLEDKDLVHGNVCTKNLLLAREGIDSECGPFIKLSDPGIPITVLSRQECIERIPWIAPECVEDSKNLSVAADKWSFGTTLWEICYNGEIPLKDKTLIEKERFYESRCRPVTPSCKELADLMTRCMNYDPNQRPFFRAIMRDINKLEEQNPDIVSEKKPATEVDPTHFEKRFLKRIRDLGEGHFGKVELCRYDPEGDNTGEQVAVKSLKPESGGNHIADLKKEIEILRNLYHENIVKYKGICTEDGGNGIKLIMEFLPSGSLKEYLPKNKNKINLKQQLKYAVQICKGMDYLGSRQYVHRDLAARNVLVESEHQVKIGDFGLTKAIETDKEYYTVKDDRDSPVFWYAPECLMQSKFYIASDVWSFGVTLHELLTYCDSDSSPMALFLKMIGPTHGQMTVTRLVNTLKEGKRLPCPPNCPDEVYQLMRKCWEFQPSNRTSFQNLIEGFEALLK
Chain of Human Tyk2 kinase domain (P29597 886-1187): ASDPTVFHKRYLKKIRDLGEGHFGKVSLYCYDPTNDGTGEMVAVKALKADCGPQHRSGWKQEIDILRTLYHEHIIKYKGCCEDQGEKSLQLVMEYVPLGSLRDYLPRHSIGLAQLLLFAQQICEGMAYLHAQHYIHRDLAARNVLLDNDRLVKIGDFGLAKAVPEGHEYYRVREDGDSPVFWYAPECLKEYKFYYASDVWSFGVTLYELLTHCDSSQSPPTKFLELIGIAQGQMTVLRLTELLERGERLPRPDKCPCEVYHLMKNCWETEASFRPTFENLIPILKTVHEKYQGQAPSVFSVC
Chain of JAK2 (O60674 whole entry): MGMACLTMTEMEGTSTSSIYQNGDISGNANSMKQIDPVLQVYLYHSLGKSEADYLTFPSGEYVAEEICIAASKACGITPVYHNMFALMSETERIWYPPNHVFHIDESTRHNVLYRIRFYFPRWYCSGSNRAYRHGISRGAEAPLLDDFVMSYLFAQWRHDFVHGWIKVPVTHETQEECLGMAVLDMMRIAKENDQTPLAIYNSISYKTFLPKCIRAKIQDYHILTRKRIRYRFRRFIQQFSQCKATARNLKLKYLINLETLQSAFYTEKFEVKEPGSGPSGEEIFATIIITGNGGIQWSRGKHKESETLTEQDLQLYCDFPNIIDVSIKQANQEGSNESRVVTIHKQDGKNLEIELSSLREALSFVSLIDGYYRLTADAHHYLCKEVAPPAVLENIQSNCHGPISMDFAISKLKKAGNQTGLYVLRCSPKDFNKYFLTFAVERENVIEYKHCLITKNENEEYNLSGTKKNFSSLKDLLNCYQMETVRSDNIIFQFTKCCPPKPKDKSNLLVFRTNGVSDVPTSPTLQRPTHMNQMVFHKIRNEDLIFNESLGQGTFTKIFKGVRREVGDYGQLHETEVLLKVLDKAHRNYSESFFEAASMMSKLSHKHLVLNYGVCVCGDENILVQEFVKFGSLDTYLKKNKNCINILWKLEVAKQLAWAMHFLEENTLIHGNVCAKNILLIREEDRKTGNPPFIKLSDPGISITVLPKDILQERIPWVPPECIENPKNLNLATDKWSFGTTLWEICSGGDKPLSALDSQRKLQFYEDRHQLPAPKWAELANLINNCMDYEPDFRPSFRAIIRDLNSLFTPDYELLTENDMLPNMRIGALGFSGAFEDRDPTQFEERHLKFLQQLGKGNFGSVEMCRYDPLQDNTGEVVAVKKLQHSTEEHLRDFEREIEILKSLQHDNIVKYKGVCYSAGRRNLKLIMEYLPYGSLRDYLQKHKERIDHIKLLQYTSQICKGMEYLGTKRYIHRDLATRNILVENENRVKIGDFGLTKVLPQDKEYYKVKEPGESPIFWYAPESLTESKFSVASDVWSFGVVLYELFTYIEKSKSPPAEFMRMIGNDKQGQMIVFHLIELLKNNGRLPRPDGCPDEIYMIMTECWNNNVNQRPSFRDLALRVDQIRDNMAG

By IC50 is commonly meant the concentration that gives 50% inhibition. Take `CCC[C@@H](C)n1cc(-c2nc(-c3cnn(C(CO)CO)c3)cn3nccc23)cn1` [Example 83, (R)-2-(4-(4-(1-(pentan-2-yl)-1H-pyrazol-4-yl)pyrazolo[1,5-a]pyrazin-6-yl)-1H-pyrazol-1-yl)propane-1,3-diol]: the IC50 in test [1] fell in the range of 1 to 10 µM; in test [2], 10 to 100 nM; in test [3], 10 to 100 nM; in test [4] it was 1000 to 10000 nM.
As for `CC[C@H](C)n1cc(-c2nc(-c3cnn(C(CO)CO)c3)cn3nccc23)cn1` [Example 84, (S)-2-(4-(4-(1-(sec-butyl)-1H-pyrazol-4-yl)pyrazolo[1,5-a]pyrazin-6-yl)-1H-pyrazol-1-yl)propane-1,3-diol], the IC50 in test [1] lay within 1 to 10 µM; in test [2], 10 to 100 nM; in test [3], 10 to 100 nM; in test [4], 10 to 100 nM.
For the compound `CC(C)C[C@H](C)n1cc(-c2nc(-c3cnn(C(CO)CO)c3)cn3nccc23)cn1` [Example 87, (S)-2-(4-(4-(1-(4-methylpentan-2-yl)-1H-pyrazol-4-yl)pyrazolo[1,5-a]pyrazin-6-yl)-1H-pyrazol-1-yl)propane-1,3-diol], the IC50 in test [1] is 1 to 10 µM; in test [2], 100 to 1000 nM; in test [3], 100 to 1000 nM; in test [4], 1000 to 10000 nM.
Turning to `CC(C)C[C@@H](C)n1cc(-c2nc(-c3cnn(C(CO)CO)c3)cn3nccc23)cn1` [Example 88, (R)-2-(4-(4-(1-(4-methylpentan-2-yl)-1H-pyrazol-4-yl)pyrazolo[1,5-a]pyrazin-6-yl)-1H-pyrazol-1-yl)propane-1,3-diol], the IC50 was in the range of 1 to 10 µM in test [1], 100 to 1000 nM in test [2], 100 to 1000 nM in test [3] and 1000 to 10000 nM in test [4].
On to `CCC(CC)n1cc(-c2nc(-c3cnn([C@@H](C)[C@H](O)CO)c3)cn3nccc23)cn1` [Example 89, (2S,3S)-3-(4-(4-(1-(pentan-3-yl)-1H-pyrazol-4-yl)pyrazolo[1,5-a]pyrazin-6-yl)-1H-pyrazol-1-yl)butane-1,2-diol], for which the IC50 was in the range of 1 to 10 µM in test [1], 10 to 100 nM in test [2], 10 to 100 nM in test [3] and 100 to 1000 nM in test [4].
As to `CCC(CC)n1cc(-c2nc(-c3cnn(CC(=O)NC(C)C)c3)cn3nccc23)cn1` [Example 97, N-isopropyl-2-(4-(4-(1-(pentan-3-yl)-1H-pyrazol-4-yl)pyrazolo[1,5-a]pyrazin-6-yl)-1H-pyrazol-1-yl)acetamide], the IC50 in test [1] was 1 to 10 µM; in test [2] it was 100 to 1000 nM; in test [3], 10 to 100 nM; in test [4], 100 to 1000 nM.
As for `CCC(CC)n1cc(-c2nc(-c3cnn(CC(O)CN)c3)cn3nccc23)cn1` (centres unmarked) [Example 98, 1-amino-3-(4-(4-(1-(pentan-3-yl)-1H-pyrazol-4-yl)pyrazolo[1,5-a]pyrazin-6-yl)-1H-pyrazol-1-yl)propan-2-ol], the IC50 in test [1] was 1 to 10 µM; in test [2], 10 to 100 nM; in test [3], 10 to 100 nM; in test [4] (setting [5]) it was 1000 to 10000 nM.
Take `CCC(CC)n1cc(-c2nc(-c3cnn(C[C@H](O)CN(C)C)c3)cn3nccc23)cn1` [Example 99, (R)-1-(dimethylamino)-3-(4-(4-(1-(pentan-3-yl)-1H-pyrazol-4-yl)pyrazolo[1,5-a]pyrazin-6-yl)-1H-pyrazol-1-yl)propan-2-ol]: the IC50 in test [1] is 1 to 10 µM; in test [2], 10 to 100 nM; in test [3] it was 10 to 100 nM; in test [4] (setting [5]), 1000 to 10000 nM.
In the case of `CCC(CC)n1cc(-c2nc(-c3cnn(C[C@H](O)CNC)c3)cn3nccc23)cn1` [Example 100, (R)-1-(methylamino)-3-(4-(4-(1-(pentan-3-yl)-1H-pyrazol-4-yl)pyrazolo[1,5-a]pyrazin-6-yl)-1H-pyrazol-1-yl)propan-2-ol], the IC50 lay in the range of 1 to 10 µM in test [1], 10 to 100 nM in test [2], 10 to 100 nM in test [3] and 1000 to 10000 nM in test [4] (setting [5]).
For the compound `CCC(CC)n1cc(-c2nc(-c3cnn(C[C@@H](O)CN(C)C)c3)cn3nccc23)cn1` [Example 101, (S)-1-(dimethylamino)-3-(4-(4-(1-(pentan-3-yl)-1H-pyrazol-4-yl)pyrazolo[1,5-a]pyrazin-6-yl)-1H-pyrazol-1-yl)propan-2-ol], the IC50 in test [1] lay within 1 to 10 µM; in test [2], 10 to 100 nM; in test [3] it was 10 to 100 nM; in test [4] (setting [5]), 1000 to 10000 nM.
`CCC(CC)n1cc(-c2nc(-c3cnn(C[C@@H](O)CNC)c3)cn3nccc23)cn1` [Example 102, (S)-1-(methylamino)-3-(4-(4-(1-(pentan-3-yl)-1H-pyrazol-4-yl)pyrazolo[1,5-a]pyrazin-6-yl)-1H-pyrazol-1-yl)propan-2-ol]: the IC50 in test [1] was in the range of 1 to 10 µM; in test [2], 10 to 100 nM; in test [3], 100 to 1000 nM; in test [4] (setting [5]), 1000 to 10000 nM.
For `CCC(CC)n1cc(-c2nc(-c3cnn(C[C@H](O)CN4CC(OC)C4)c3)cn3nccc23)cn1` [Example 103, (R)-1-(3-methoxyazetidin-1-yl)-3-(4-(4-(1-(pentan-3-yl)-1H-pyrazol-4-yl)pyrazolo[1,5-a]pyrazin-6-yl)-1H-pyrazol-1-yl)propan-2-ol] the same measures were 1 to 10 µM, 10 to 100 nM, 10 to 100 nM and 1000 to 10000 nM.
`CCC(CC)n1cc(-c2nc(-c3cnn(C[C@@H](O)CN4CC(OC)C4)c3)cn3nccc23)cn1` [Example 104, (S)-1-(3-methoxyazetidin-1-yl)-3-(4-(4-(1-(pentan-3-yl)-1H-pyrazol-4-yl)pyrazolo[1,5-a]pyrazin-6-yl)-1H-pyrazol-1-yl)propan-2-ol]: the IC50 in test [1] was in the range of 1 to 10 µM; in test [2], 10 to 100 nM; in test [3] it was 10 to 100 nM; in test [4] (setting [5]), 1000 to 10000 nM.
As for `CCC(CC)n1cc(-c2nc(-c3cnn(C[C@H](O)CN4CCCC4)c3)cn3nccc23)cn1` [Example 105, (R)-1-(4-(4-(1-(pentan-3-yl)-1H-pyrazol-4-yl)pyrazolo[1,5-a]pyrazin-6-yl)-1H-pyrazol-1-yl)-3-(pyrrolidin-1-yl)propan-2-ol], the IC50 in test [1] fell in the range of 1 to 10 µM; in test [2], 100 to 1000 nM; in test [3] it was 100 to 1000 nM; in test [4] (setting [5]), 1000 to 10000 nM.
Take `CCC(CC)n1cc(-c2nc(-c3cnn(C[C@@H](O)CN4CCCC4)c3)cn3nccc23)cn1` [Example 106, (S)-1-(4-(4-(1-(pentan-3-yl)-1H-pyrazol-4-yl)pyrazolo[1,5-a]pyrazin-6-yl)-1H-pyrazol-1-yl)-3-(pyrrolidin-1-yl)propan-2-ol]: the IC50 in test [1] is 1 to 10 µM; in test [2], 100 to 1000 nM; in test [3] it was 100 to 1000 nM; in test [4] (setting [5]), 1000 to 10000 nM.
For `CCC(CC)n1cc(-c2nc(-c3cnn(C[C@@H](O)COC)c3)cn3nccc23)cn1` [Example 107, (R)-1-methoxy-3-(4-(4-(1-(pentan-3-yl)-1H-pyrazol-4-yl)pyrazolo[1,5-a]pyrazin-6-yl)-1H-pyrazol-1-yl)propan-2-ol], the IC50 in test [1] was 1 to 10 µM; in test [2], 10 to 100 nM; in test [3], 10 to 100 nM; in test [4], 100 to 1000 nM.
`CCC(CC)n1cc(-c2nc(-c3cnn(C[C@H](O)COC)c3)cn3nccc23)cn1` [Example 108, (S)-1-methoxy-3-(4-(4-(1-(pentan-3-yl)-1H-pyrazol-4-yl)pyrazolo[1,5-a]pyrazin-6-yl)-1H-pyrazol-1-yl)propan-2-ol]: the IC50 lay within 1 to 10 µM in test [1], 10 to 100 nM in test [2], 10 to 100 nM in test [3] and 100 to 1000 nM in test [4].
